pIC50 and Activation data for 4 molecules are collected here from ChEMBL document CHEMBL1130674, “N-arylrolipram derivatives as potent and selective PDE4 inhibitors” (1998).

Each structure is given as a SMILES string.

Assay [1] deals with PBMC. Put plainly: Inhibition of anti-CD3 induced IL-4 release by human peripheral blood mononuclear cells. It counts as functional.
The nature of assay [2]: Inhibition of rolipram binding.
Assay [3] has as its system Rattus norvegicus. The assay is described as follows: Eosinophil accumulation in sensitized brown norway rats at 3.2 mg/kg dose (No of rats = 5). It counts as functional.
In assay [4] the target is 3',5'-cyclic-AMP phosphodiesterase 4D (Homo sapiens) (UniProt Q08499). The assay is described as follows: Inhibition of phosphodiesterase (PDE) 4D.
Assay [5] has as its target T1, 3',5'-cyclic-AMP phosphodiesterase 4B (Rattus norvegicus) (UniProt P14646).
T1 sequence (whole entry): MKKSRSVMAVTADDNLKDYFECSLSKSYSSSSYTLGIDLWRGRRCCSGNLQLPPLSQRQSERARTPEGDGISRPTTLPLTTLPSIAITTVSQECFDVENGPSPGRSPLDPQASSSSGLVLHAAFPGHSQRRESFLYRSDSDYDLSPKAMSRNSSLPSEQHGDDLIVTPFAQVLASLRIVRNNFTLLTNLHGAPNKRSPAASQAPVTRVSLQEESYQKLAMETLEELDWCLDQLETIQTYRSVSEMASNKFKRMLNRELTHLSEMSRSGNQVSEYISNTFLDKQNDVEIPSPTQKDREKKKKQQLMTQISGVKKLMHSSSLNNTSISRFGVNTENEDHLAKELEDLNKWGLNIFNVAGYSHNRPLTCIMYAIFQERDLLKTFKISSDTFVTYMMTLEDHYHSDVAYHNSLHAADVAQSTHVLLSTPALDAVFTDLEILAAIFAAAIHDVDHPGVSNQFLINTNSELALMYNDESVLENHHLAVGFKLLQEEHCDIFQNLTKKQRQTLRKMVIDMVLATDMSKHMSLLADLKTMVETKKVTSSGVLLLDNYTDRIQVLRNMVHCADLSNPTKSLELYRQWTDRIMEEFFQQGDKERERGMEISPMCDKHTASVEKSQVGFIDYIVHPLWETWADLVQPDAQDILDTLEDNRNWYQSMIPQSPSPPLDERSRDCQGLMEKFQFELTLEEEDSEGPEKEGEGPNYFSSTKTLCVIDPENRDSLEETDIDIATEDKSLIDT
Put plainly: Inhibition of phosphodiesterase (PDE) 4B.

The test system of assay [6] is PBMC. Put plainly: Inhibition of LPS induced TNF-alpha release by human peripheral blood mononuclear cells. Type of assay: functional.
In assay [7] the target is Phosphodiesterase 3 (Homo sapiens) (UniProt Q14432+Q13370). The assay is described as follows: Inhibition of phosphodiesterase (PDE) 3. Type of assay: protein assay.
Assay [8] has as its system PBMC. Put plainly: Inhibition of anti-CD3 induced IFN-gamma-release in human peripheral blood mononuclear cells. Type of assay: functional.
The target of assay [9] is 3',5'-cyclic-AMP phosphodiesterase 4A (Homo sapiens) (UniProt P27815).
Description: Inhibition of phosphodiesterase (PDE) 4A
The species entered for a further assay is Homo sapiens. The assay is described as follows: Inhibition of fMLP induced oxidative burst in human eosinophils. It counts as functional.
For assay [10], the system named is PBMC. Put plainly: Inhibition of anti-CD3 induced T-cell proliferation in human peripheral blood mononuclear cells. It counts as functional.
Assay [11] relates to Rattus norvegicus. The assay is described as follows: Eosinophil accumulation in sensitized brown norway rats at 1 mg/kg dose (No of rats = 5). Type of assay: functional.

3',5'-cyclic-AMP phosphodiesterase 4A (Homo sapiens), sequence (P27815 whole entry): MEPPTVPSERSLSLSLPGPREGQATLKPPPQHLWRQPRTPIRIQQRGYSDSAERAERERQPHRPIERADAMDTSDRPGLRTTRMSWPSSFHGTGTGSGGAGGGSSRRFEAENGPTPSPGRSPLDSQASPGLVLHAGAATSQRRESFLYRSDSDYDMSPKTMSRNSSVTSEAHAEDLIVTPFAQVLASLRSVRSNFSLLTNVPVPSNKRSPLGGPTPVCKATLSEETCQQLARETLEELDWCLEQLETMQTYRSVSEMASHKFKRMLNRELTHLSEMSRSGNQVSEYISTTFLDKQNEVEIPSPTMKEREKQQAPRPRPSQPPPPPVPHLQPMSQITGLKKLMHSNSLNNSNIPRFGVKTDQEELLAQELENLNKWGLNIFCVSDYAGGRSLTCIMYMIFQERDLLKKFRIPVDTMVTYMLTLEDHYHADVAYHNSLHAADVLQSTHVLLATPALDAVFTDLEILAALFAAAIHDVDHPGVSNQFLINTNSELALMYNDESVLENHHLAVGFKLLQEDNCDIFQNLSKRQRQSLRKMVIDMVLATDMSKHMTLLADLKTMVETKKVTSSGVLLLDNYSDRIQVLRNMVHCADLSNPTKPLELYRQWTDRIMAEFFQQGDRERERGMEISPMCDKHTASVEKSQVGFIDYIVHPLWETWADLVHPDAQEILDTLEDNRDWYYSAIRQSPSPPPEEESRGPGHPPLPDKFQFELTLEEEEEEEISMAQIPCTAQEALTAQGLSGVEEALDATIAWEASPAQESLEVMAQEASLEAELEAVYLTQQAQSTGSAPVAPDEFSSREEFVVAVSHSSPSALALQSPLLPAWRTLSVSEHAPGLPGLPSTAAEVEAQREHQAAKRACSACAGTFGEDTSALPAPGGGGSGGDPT
3',5'-cyclic-AMP phosphodiesterase 4D (Homo sapiens), sequence (Q08499 whole entry): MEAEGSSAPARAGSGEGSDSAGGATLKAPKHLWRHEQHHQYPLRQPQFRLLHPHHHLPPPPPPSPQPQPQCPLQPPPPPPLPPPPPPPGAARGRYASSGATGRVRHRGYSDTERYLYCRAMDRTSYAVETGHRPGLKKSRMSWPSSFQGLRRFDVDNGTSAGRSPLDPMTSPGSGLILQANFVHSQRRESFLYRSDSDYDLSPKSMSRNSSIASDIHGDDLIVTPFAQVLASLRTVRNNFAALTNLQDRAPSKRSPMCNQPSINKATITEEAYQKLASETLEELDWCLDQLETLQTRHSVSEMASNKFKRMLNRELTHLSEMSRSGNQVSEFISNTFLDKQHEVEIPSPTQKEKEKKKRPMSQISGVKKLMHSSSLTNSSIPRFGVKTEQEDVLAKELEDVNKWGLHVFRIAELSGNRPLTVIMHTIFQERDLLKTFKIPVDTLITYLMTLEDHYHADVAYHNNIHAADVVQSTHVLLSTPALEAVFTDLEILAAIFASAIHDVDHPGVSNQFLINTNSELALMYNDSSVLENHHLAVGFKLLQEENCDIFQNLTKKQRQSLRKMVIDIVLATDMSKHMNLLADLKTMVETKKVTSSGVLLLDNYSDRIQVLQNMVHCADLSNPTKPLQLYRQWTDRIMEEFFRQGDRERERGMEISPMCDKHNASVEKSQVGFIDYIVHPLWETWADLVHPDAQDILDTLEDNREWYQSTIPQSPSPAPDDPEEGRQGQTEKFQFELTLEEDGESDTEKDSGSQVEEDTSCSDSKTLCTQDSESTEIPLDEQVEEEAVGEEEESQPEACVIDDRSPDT

As to `COc1cccc(COc2cc(C(=O)O)cc(N3CC(c4ccc(OC)c(OC5CCCC5)c4)CC3=O)c2)c1` (stereo unspecified), the pIC50 in the assay on PBMC [1] was 6.6; in assay [2] it was 7.5; in [4], 7.9; in assay [5] it was 7.7; with PBMC [6], 7.4; in assay [7], under 4. Further, the pIC50 in the assay with PBMC [8] amounted to 7.5; in assay [9], 7.9; in the assay filed under Homo sapiens, 6.6; with PBMC [10], 7.2. Moreover, the Activation in the assay with Rattus norvegicus [3] worked out at 5 mU ml-1.
`COc1cccc(COc2cccc(N3CC(c4ccc(OC)c(OC5CCCC5)c4)CC3=O)c2)c1` (stereo unspecified): the pIC50 is 8.1 in assay [2]; 8.1 in assay [4]; 8.6 in assay [5]; under 4 in [7]; 8.2 in assay [9].
`COc1ccc(C2CNC(=O)C2)cc1OC1CCCC1` (stereo unspecified) [ROLIPRAM]: the pIC50 with PBMC [1] was found to be 6.3; in the assay on PBMC [6], 7.1; with PBMC [8], 5.6; in the assay filed under Homo sapiens it was 6.1.
For `COc1cccc(COc2cc(C(=O)NN(C)C)cc(N3CC(c4ccc(OC)c(OC5CCCC5)c4)CC3=O)c2)c1` (stereo unspecified), the negative logarithm of the IC50 (pIC50) with PBMC [1] was 7.6; in [2] it was 8.3; in assay [4] it was 8.8; in assay [5] it was 8.3; with PBMC [6], 7.7; in [7], under 4. Further, the pIC50 in the assay with PBMC [8] turned out to be 7.8; in [9], 8.6; in the assay filed under Homo sapiens it was 7.3; with PBMC [10], 7.3. Further, the Activation with Rattus norvegicus [11] was 10 mU ml-1.

The term pIC50 denotes −log10 of the IC50, conventionally taken in molar units. Read a low pIC50 as a large IC50.
